In this experiment the target is T1, Human complement C1s enzyme (Homo sapiens, UniProt P09871).
T1 construct: purified from human serum, Complement Technology, Inc; purchased Complement Technology, Inc; host or cells: human serum (plasma-derived native protein)
T1 sequence (P09871 438-688 limits assumed): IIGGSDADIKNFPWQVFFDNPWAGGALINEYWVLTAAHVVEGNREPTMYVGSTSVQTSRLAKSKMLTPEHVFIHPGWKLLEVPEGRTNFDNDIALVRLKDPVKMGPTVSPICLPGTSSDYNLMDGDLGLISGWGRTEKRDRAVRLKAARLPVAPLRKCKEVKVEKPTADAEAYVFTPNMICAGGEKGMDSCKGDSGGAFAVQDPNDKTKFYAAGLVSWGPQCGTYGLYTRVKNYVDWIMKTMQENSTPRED
T1 sequence (P09871 16-437 partner limits assumed): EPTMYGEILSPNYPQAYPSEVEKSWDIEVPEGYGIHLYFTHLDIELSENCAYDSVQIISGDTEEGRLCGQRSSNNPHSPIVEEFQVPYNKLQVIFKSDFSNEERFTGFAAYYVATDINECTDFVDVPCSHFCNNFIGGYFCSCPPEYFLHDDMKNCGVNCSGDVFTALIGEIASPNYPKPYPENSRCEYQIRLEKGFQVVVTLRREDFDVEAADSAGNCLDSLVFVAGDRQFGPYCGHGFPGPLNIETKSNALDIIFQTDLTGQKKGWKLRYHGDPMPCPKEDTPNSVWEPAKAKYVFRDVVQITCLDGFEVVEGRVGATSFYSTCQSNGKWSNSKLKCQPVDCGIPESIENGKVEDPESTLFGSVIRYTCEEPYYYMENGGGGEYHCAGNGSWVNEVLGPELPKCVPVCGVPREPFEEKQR
Kind of experiment: Human C1s enzyme assay. It counts as biochemical. To be noted: human complement C1s enzyme 1.16 nM, substrate Z-L-Lys-SBzl, A405; read-out: IC50 (Stars). The procedure, abridged:
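Serum-purified human C1s (1.16 nM final) preincubated 5 min at room temperature with compound in 50 mM Tris, 1 M NaCl, pH 7.5. Z-L-Lys-SBzl and DTNB added at 100 μM each; A405 recorded every 30 s. IC50 from nonlinear regression of reaction rates versus compound concentration.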

Here are results for 22 molecules from patent publication US20260184707A1, “PHARMACEUTICAL COMPOUNDS FOR THE TREATMENT OF COMPLEMENT MEDIATED DISORDERS” (ALEXION PHARMACEUTICALS, INC., priority 2022, published 2026).

As usually defined, the IC50 is the concentration that inhibits the measured activity by half.

Consider `C[C@@H](Nc1cnc(N2CCS(=O)(=O)CC2)n(CC(=O)NCc2cc3cnccc3[nH]2)c1=O)c1ccc2oc3ccccc3c2c1` [Compound 385, (R)-N-((1H-pyrrolo[3,2-c]pyridin-2-yl)methyl)-2-(5-((1-(dibenzo[b,d]furan-2-yl)ethyl)-amino)-2-(1,1-dioxidothio-morpholino)-6-oxopyrimidin-1(6H)-yl)acetamide], for which the half-inhibitory concentration (IC50) was above 1000 nM.
For the molecule `C[C@@H](Nc1cnc(N2CC(O)C2)n(CC(=O)NCc2cc3cnccc3[nH]2)c1=O)c1ccc2oc3ccccc3c2c1` [Compound 386, (R)-N-((1H-pyrrolo[3,2-c]pyridin-2-yl)methyl)-2-(5-((1-(dibenzo[b,d]furan-2-yl)ethyl)-amino)-2-(3-hydroxyazetidin-1-yl)-6-oxopyrimidin-1(6H)-yl)acetamide], the half-inhibitory concentration (IC50) was above 1000 nM.
Regarding `C[C@@H](Nc1cnc(N2C[C@H]3C[C@@H](C2)C3)n(CC(=O)NCc2cc3cnccc3[nH]2)c1=O)c1ccc2oc3ccccc3c2c1` [Compound 387, N-((1H-pyrrolo[3,2-c]pyridin-2-yl)methyl)-2-(2-((1S,5S)-3-azabicyclo[3.1.1]heptan-3-yl)-5-(((R)-1-(dibenzo[b,d]furan-2-yl)ethyl)amino)-6-oxopyr-imidin-1(6H)-yl)acetamide], the IC50 lay in the range of 100 to 1000 nM.
Turning to `C[C@@H](Nc1cnc(N2CCCCCC2)n(CC(=O)NCc2cc3cnccc3[nH]2)c1=O)c1ccc2oc3ccccc3c2c1` [Compound 388, (R)-N-((1H-pyrrolo[3,2-c]pyridin-2-yl)methyl)-2-(2-(azepan-1-yl)-5-((1-(dibenzo [b,d]furan-2-yl)ethyl)amino)-6-oxopyrimidin-1(6H)-yl)-acetamide], the concentration for half-maximal inhibition (IC50) was in the range of 100 to 1000 nM.
Turning to `C[C@@H](Nc1cnc(N2CCN(C)CC2)n(CC(=O)NCc2cc3cnccc3[nH]2)c1=O)c1ccc2oc3ccccc3c2c1` [Compound 389, (R)-N-((1H-pyrrolo[3,2-c]pyridin-2-yl)methyl)-2-(5-((1-(dibenzo[b,d]furan-2-yl)ethyl)-amino)-2-(4-methylpiperazin-1-yl)-6-oxopyrimidin-1(6H)-yl)acetamide], the concentration for half-maximal inhibition (IC50) is below 100 nM.
Consider `C[C@@H](Nc1nnc(-c2ccccc2F)n(CC(=O)NCc2cc3cnccc3[nH]2)c1=O)c1ccc2oc3ccccc3c2c1` [Compound 390, (R)—N-((1H-pyrrolo[3,2-c]pyridine-2-yl)methyl)-2-(6-((1-(dibenzo[b,d]furan-2-yl)ethyl)amino)-3-(2-fluorophenyl)-5-oxo-1,2,4-triazin-4(5H)-yl)acetamide], for which the 50% inhibitory concentration (IC50) is below 100 nM.
`Cc1ncc(-c2ncc(N[C@H](C)c3ccc4oc5ccccc5c4c3)c(=O)n2CC(=O)NCc2cc3cnccc3[nH]2)cn1` [Compound 391, (R)-N-((1H-pyrrolo[3,2-c]pyridin-2-yl)methyl)-2-(5-((1-(dibenzo[b,d]furan-2-yl)ethyl)-amino)-2′-methyl-6-oxo-[2,5′-bipyrimidin]-1(6H)-yl)acet-amide]: the IC50 lay in the range of 100 to 1000 nM.
Consider `O=C(Cn1cncc(NC(=O)c2coc(-c3ccccc3)n2)c1=O)NCc1cc2cnccc2[nH]1` [Compound 392, N-(1-(2-(((1H-pyrrolo[3,2-c]pyridin-2-yl)methyl)amino)-2-oxoethyl)-6-oxo-1,6-dihydro-pyrimidin-5-yl)-2-phenyl-oxazole-4-carboxamide], for which the IC50 was below 100 nM.
In the case of `O=C(Cn1cncc(NC(=O)c2csc(-c3ccccc3)n2)c1=O)NCc1cc2cnccc2[nH]1` [Compound 393, N-(1-(2-(((1H-pyrrolo[3,2-c]pyridin-2-yl)methyl)amino)-2-oxoethyl)-6-oxo-1,6-dihydro-pyrimidin-5-yl)-2-phenyl-thiazole-4-carboxamide], the IC50 was 100 to 1000 nM.
For `O=C(Cn1c(-c2ccccc2F)ncc(N[C@H]2CCc3ccccc32)c1=O)NCc1cc2cnccc2[nH]1` [Compound 394, (S)—N-((1H-pyrrolo[3,2-c]pyridine-2-yl)methyl)-2-(5-((2,3-dihydro-1H-inden-1-yl)amino)-2-(2-fluorophenyl)-6-oxopyrimidin-1(6H)-yl)acetamide], the IC50 was below 100 nM.
In the case of `O=C(Cn1c(-c2ccccc2)ncc(NS(=O)(=O)c2ccccc2)c1=O)NCc1cc2cnccc2[nH]1` [Compound 395, N-((1H-pyrrolo[3,2-c]pyridin-2-yl)methyl)-2-(6-oxo-2-phen-yl-5-(phenylsulfonamido)-pyrimidin-1(6H)-yl)acetamide], the IC50 was above 1000 nM.
To `C[C@@H](Nc1cnc(-c2ccccc2F)n(CC(=O)NCc2cc3cnccc3[nH]2)c1=O)c1cc2c(cc1F)oc1ccccc12` [Compound 396, (R)-N-((1H-pyrrolo[3,2-c]pyridin-2-yl)methyl)-2-(5-((1-(3-fluorodibenzo[b,d]furan-2-yl)ethyl)amino)-2-(2-fluoro-phenyl)-6-oxopyrimidin-1(6H)-yl)acetamide] belongs below 100 nM; to `C[C@@H](Nc1cnc(-n2cccc2)n(CC(=O)NCc2cc3cnccc3[nH]2)c1=O)c1ccc2oc3ccccc3c2c1` [Compound 397, (R)-N-((1H-pyrrolo[3,2-c]pyridin-2-yl)methyl)-2-(5-((1-(dibenzo[b,d]furan-2-yl)ethyl)-amino)-6-oxo-2-(1H-pyrrol-1-yl)pyrimidin-1(6H)-yl)acet-amide], below 100 nM; to `C[C@@H](Nc1cnc(N2CCCC(F)C2)n(CC(=O)NCc2cc3cnccc3[nH]2)c1=O)c1ccc2oc3ccccc3c2c1` (stereo partly drawn) [Compound 398, N-((1H-pyrrolo[3,2-c]pyridin-2-yl)methyl)-2-(5-(((R)-1-(dibenzo[b,d]furan-2-yl)ethyl)-amino)-2-(3-fluoropiperidin-1-yl)-6-oxopyrimidin-1(6H)-yl)-acetamide], below 100 nM.
To `C[C@@H](Nc1cnc(N2CCCC(F)(F)C2)n(CC(=O)NCc2cc3cnccc3[nH]2)c1=O)c1ccc2oc3ccccc3c2c1` [Compound 399, (R)-N-((1H-pyrrolo[3,2-c]pyridin-2-yl)methyl)-2-(5-((1-(dibenzo[b,d]furan-2-yl)ethyl)-amino)-2-(3,3-difluoropiperi-din-1-yl)-6-oxopyrimidin-1(6H)-yl)acetamide] belongs below 100 nM.
Next, `C[C@@H](Nc1cnc(N2CCCC2=O)n(CC(=O)NCc2cc3cnccc3[nH]2)c1=O)c1ccc2oc3ccccc3c2c1` [Compound 400, (R)-N-((1H-pyrrolo[3,2-c]pyridin-2-yl)methyl)-2-(5-((1-(dibenzo[b,d]furan-2-yl)ethyl)-amino)-6-oxo-2-(2-oxopyr-rolidin-1-yl)pyrimidin-1(6H)-yl)acetamide]: below 100 nM.
With `C[C@@H](Nc1cnc(N2CCC(F)(F)C2)n(CC(=O)NCc2cc3cnccc3[nH]2)c1=O)c1ccc2oc3ccccc3c2c1` [Compound 401, (R)-N-((1H-pyrrolo[3,2-c]pyridin-2-yl)methyl)-2-(5-((1-(dibenzo[b,d]furan-2-yl)ethyl)-amino)-2-(3,3-difluoropyrroli-din-1-yl)-6-oxopyrimidin-1(6H)-yl)acetamide], the 50% inhibitory concentration (IC50) was 100 to 1000 nM.
Consider `C[C@@H](Nc1cnc(N2CCCC(C(F)(F)F)C2)n(CC(=O)NCc2cc3cnccc3[nH]2)c1=O)c1ccc2oc3ccccc3c2c1` (stereo partly drawn) [Compound 402, N-((1H-pyrrolo[3,2-c]pyridin-2-yl)methyl)-2-(5-(((R)-1-(dibenzo[b,d]furan-2-yl)ethyl)-amino)-6-oxo-2-(3-(trifluoro-methyl)piperidin-1-yl)pyrimi-din-1(6H)-yl)acetamide], for which the IC50 is 100 to 1000 nM.
As for `O=C(Cn1c(-c2ccccc2F)ncc(NC2(c3ccc4oc5ccccc5c4c3)CC2)c1=O)NCc1cc2cnccc2[nH]1` [Compound 403, N-((1H-pyrrolo[3,2-c]pyridine-2-yl)methyl)-2-(5-((1-(dibenzo[b,d]furan-2-yl)cyclopropyl)amino)-2-(2-fluorophenyl)-6-oxopyrimidin-1(6H)-yl)acetamide], the half-inhibitory concentration (IC50) is below 100 nM.
Turning to `Cc1ncc(N[C@H](C)c2ccc3oc4ccccc4c3c2)c(=O)n1C(C)C(=O)NCc1cc2cnccc2[nH]1` (stereo partly drawn) [Compound 404, N-((1H-pyrrolo[3,2-c]pyridin-2-yl)methyl)-2-(5-(((R)-1-(dibenzo[b,d]furan-2-yl)ethyl)-amino)-2-methyl-6-oxopyrimi-din-1(6H)-yl)propanamide], the IC50 is above 1000 nM.
For the molecule `O=C(Cn1cncc(NC(=O)c2cnc(-c3ccccc3)o2)c1=O)NCc1cc2cnccc2[nH]1` [Compound 405, N-(1-(2-(((1H-pyrrolo[3,2-c]pyridin-2-yl)methyl)amino)-2-oxoethyl)-6-oxo-1,6-dihydro-pyrimidin-5-yl)-2-phenyl-oxazole-5-carboxamide], the IC50 was below 100 nM.
Next, `Cc1ncc(NC(=O)c2csc(-c3ccccc3)n2)c(=O)n1CC(=O)NCc1cc2cnccc2[nH]1` [Compound 406, N-(1-(2-(((1H-pyrrolo[3,2-c]pyridine-2-yl)methyl)amino)-2-oxoethyl)-2-methyl-6-oxo-1,6-dihydropyrimidin-5-yl)-2-phenylthiazole-4-carboxamide]: 100 to 1000 nM.
